Test results: ChEMBL document CHEMBL6096718, “Discovery of Rezatapopt (PC14586), a First-in-Class, Small-Molecule Reactivator of p53 Y220C Mutant in Development” (ACS Med Chem Lett, 2025)

tested on: Cellular tumor antigen p53 (Homo sapiens), P04637 [Y220C]; experiment: Binding affinity to recombinant His-tagged p53 Y220C mutant DNA binding domain (94 to 312 residues) (unknown origin) assessed as induction of biotin-labeled consensus DNA binding by measuring […] concentration required to increase DNA binding incubated for 48 mins by TR-FRET assay; conditions: filed as activator

COc1cc(S(C)(=O)=O)ccc1NCC#Cc1cc2c(N[C@@H]3CCN(C)C[C@@H]3F)cccc2n1CC(F)(F)F was tested. Which EC150 did it give?
The EC150 was 8 nM.

With COc1cc(S(C)(=O)=O)ccc1NCC#Cc1cc2c(N[C@@H]3CCN(C)C[C@@H]3F)cccc2n1CC(F)(F)F (racemic) as the molecule, how does the EC150 read?
The EC150 was 9 nM.

How did the EC150 turn out when COc1cc(S(C)(=O)=O)ccc1NCC#Cc1cc2c(N[C@H]3CCN(C)C[C@H]3F)cccc2n1CC(F)(F)F was run?
The EC150 was 20 nM.

COc1cc(S(C)(=O)=O)ccc1NCC#Cc1cc2c(N[C@@H]3CCN(C)C[C@H]3F)cccc2n1CC(F)(F)F (racemic) was tested. Which EC150 did it give?
The EC150 was 20 nM.
